Several values for one entry are separate records, joined by “and”; a condition that tells them apart may be missing. Identical values can stand only once.
How the values were obtained:
MCF7 cells [1] = assay: Proportion of cells in mitosis (PI stained cytospins, confocal microscopy); type: cell-based; conditions: 24 hours (control 4%)
Method: To determine the proportion of cells in mitosis, drug treated cells were collected by trypsinisation and cytospins prepared. Cells were fixed in ice cold methanol for 5 minutes, air dried and DNA was stained using propidium iodide (PI) (0.1 mg/ml in phosphate buffered saline (PBS) containing 10% (v/v) newborn calf serum and 0.05% (w/v) sodium azide). Cells were analysed by confocal microscopy using a Zeiss Axiovert 100 M microscope equipped with the LSM 510 confocal system (Zeiss, Jena, Germany).
Effect of estrone derivatives on mitosis in MCF7 cells. MCF7 cells were treated with the indicated compounds for 24 hours. Cells were recovered by trypsinisation and cytospins prepared. DNA was stained with PI and cells in mitosis (i.e., with condensed chromosomes) determined as a percentage of total cells.

CAMA1 cells [2] = assay: TUNEL assay; type: cell-based; conditions: CAMA1, 500 nM for 72 hours
Method: (§1) DNA content was determined by flow cytometric analysis of propidium iodide stained cells and TdT-mediated dUTP-nick end labelling (TUNEL), respectively, as described (20). The proportion of cells in G2/M phase of the cell cycle was calculated as a proportion of cells with […] DNA content. The proportion of cells with <G1 DNA content was calculated as a percentage of total cells.
(§2) We used the TUNEL assay to confirm that the cell death detected by flow cytometry of PI stained cells was due to apoptosis. Following exposure to 2-EtEMATE (500 nM for 72 hours) there was a significant increase in the proportion of CAL51 and CAMA1 cells undergoing apoptosis (60% and 37% TUNEL positive cells, respectively) (FIG. 16). By contrast, there was only a modest increase in TUNEL positivity in MCF7 or ZR-75-l cells (7% and 10%, respectively) treated with 2-EtEMATE at this concentration.

CAL51 cells [3] = assay: TUNEL assay; type: cell-based; conditions: CAL51, 500 nM for 72 hours
Method: as §1, §2

MCF7 cells [4] = assay: TUNEL assay; type: cell-based; conditions: MCF7, 500 nM for 72 hours
Method: as §1, §2

ZR-75-1 cells [5] = assay: TUNEL assay; type: cell-based; conditions: ZR-75-1, 500 nM for 72 hours
Method: as §1, §2

CAMA1 cells [6] = assay: DNA content by flow cytometry of propidium iodide stained cells; type: cell-based; conditions: CAMA1, 500 nM
Method: (§3) MCF7, CAL51, CAMA1 and ZR-75-1 breast cancer derived cell lines were obtained from ATCC (MCF7, CAMA1, ZR-75-1) or from the Dutrillaux laboratory (CAL51) (22) and maintained in Dulbecco's modified Eagle's medium (DMEM) supplemented with 10% (v/v) fetal calf serum and antibiotics.
as §1

CAL51 cells [7] = assay: as above; type: cell-based; conditions: CAL51, 500 nM
Method: as §3, §1

MCF7 cells [8] = assay: as above; type: cell-based; conditions: MCF7, 500 nM
Method: as §3, §1

ZR-75-1 cells [9] = assay: as above; type: cell-based; conditions: ZR-75-1, 500 nM
Method: as §3, §1

[10] = test system: MCF7, ZR-75-1, CAL51 and CAMA1 cells; assay: Microtitre plate growth inhibition assay (FIG. 14); type: cell-based
[11] = test system: MCF-7 breast cancer cells; assay: Irreversible inhibition of cell growth, Stage 1 and Stage 2 (Coulter cell counter); type: cell-based; conditions: for cell numbers, % of the control cell number, Stage 1: 6 days
Method: MCF-7 breast cancer cells were seeded into multi-well culture plates at a density of 10^5 cells/well. Cells were allowed to attach and grown until about 30% confluent when they were treated as follows:
Cells were grown for 6 days in growth medium containing the above drugs with changes of medium/drug every 3 days. At the end of this period cell numbers were counted using a Coulter cell counter.
After treatment of cells for a 6-day period with the above drugs cells were re-seeded at a density of 10^4 Cells/well. No further treatments were added. Cells were allowed to continue to grow for a further 6 days in the presence of growth medium. At the end of this period cell numbers were again counted.
Stages 1 and 2 described above were repeated using Control—no treatment, EMATE 20 μM and EMATE 5 μM.
MCF-7 breast cancer cells were seeded into multi-well culture plates at a density of 10^5 cells/well. Cells were allowed to attach and grown until about 30% confluent when they were treated as follows: • Control—no treatment • Compound of Interest (COI) 20 μM
Cells were grown for 6 days in growth medium containing the COI with changes of medium/COI every 3 days. At the end of this period cell numbers were counted using a Coulter cell counter.
After treatment of cells for a 6-day period with the COI cells were re-seeded at a density of 10^4 cells/well. No further treatments were added. Cells were allowed to continue to grow for a further 6 days in the presence of growth medium. At the end of this period cell numbers were again counted.

Meth A sarcoma = conditions: 100 mg/kg, p.o., every other day, 12 day, CH3 mice (10); cited from earlier work
[12] = test system: MDA-MB-435 breast cancer cells; conditions: oral, 75 mg/kg/day for 29 days, SCID mice (11); cited from earlier work
[13] = test system: MCF-7 breast cancer cells; conditions: reported by Seegers et al. (8); cited from earlier work
B16 melanoma = conditions: 100 mg/kg, p.o., every other day, 12 day, CH3 mice (10); cited from earlier work

Question: What does the source list for `CCc1cc2c(cc1OS(N)(=O)=O)CCC1C2CCC2(C)C(=O)CCC12` (stereo not shown) [2-EtEMATE, 2-Ethylestrone-3-O-sulfamate]?
Answer: mitotic cells, percentage of total cells (MCF7 cells [1]; 500 nM): 29%; mitotic cells, percentage of total cells (MCF7 cells [1]; 5 μM): 49%; TUNEL positive cells (CAMA1 cells [2]): 37%; TUNEL positive cells (CAL51 cells [3]): 60%; TUNEL positive cells (MCF7 cells [4]): 7%; TUNEL positive cells (ZR-75-1 cells [5]): 10%; <G1 DNA content, percent of total cells (CAMA1 cells [6]; 24 hours): 4%; G1/S, percentage of total cells with a 2N to 4N DNA content (CAMA1 cells [6]; 24 hours): 33%; <G1 DNA content, percent of total cells (CAMA1 cells [6]; 48 hours): 16%; G1/S, percentage of total cells with a 2N to 4N DNA content (CAMA1 cells [6]; 48 hours): 25%; G2/M, percentage of total cells with a 2N to 4N DNA content (CAMA1 cells [6]; 48 hours): 75%; <G1 DNA content, percent of total cells (CAMA1 cells [6]; 72 hours): 36%; G1/S, percentage of total cells with a 2N to 4N DNA content (CAMA1 cells [6]; 72 hours): 33%; G2/M, percentage of total cells with a 2N to 4N DNA content (CAMA1 cells [6]; 72 hours): 67%; G1/S, percentage of total cells with a 2N to 4N DNA content (CAMA1 cells [6]; 96 hours): 33%; G2/M, percentage of total cells with a 2N to 4N DNA content (CAMA1 cells [6]; 96 hours): 67%; <G1 DNA content, percent of total cells (CAL51 cells [7]; 24 hours): 2%; G1/S, percentage of total cells with a 2N to 4N DNA content (CAL51 cells [7]; 24 hours): 38%; <G1 DNA content, percent of total cells (CAL51 cells [7]; 48 hours): 10%; G1/S, percentage of total cells with a 2N to 4N DNA content (CAL51 cells [7]; 48 hours): 18%; G2/M, percentage of total cells with a 2N to 4N DNA content (CAL51 cells [7]; 48 hours): 82%; <G1 DNA content, percent of total cells (CAL51 cells [7]; 72 hours): 21%; G1/S, percentage of total cells with a 2N to 4N DNA content (CAL51 cells [7]; 72 hours): 32%; G2/M, percentage of total cells with a 2N to 4N DNA content (CAL51 cells [7]; 72 hours): 68%; G1/S, percentage of total cells with a 2N to 4N DNA content (CAL51 cells [7]; 96 hours): 23%; G2/M, percentage of total cells with a 2N to 4N DNA content (CAL51 cells [7]; 96 hours): 77%; <G1 DNA content, percent of total cells (MCF7 cells [8]; 24 hours): 5%; G1/S, percentage of total cells with a 2N to 4N DNA content (MCF7 cells [8]; 24 hours): 63%; G2/M, percentage of total cells with a 2N to 4N DNA content (MCF7 cells [8]; 24 hours): 37%; <G1 DNA content, percent of total cells (MCF7 cells [8]; 48 hours): 5%; G1/S, percentage of total cells with a 2N to 4N DNA content (MCF7 cells [8]; 48 hours): 38%; <G1 DNA content, percent of total cells (MCF7 cells [8]; 72 hours): 12%; G1/S, percentage of total cells with a 2N to 4N DNA content (MCF7 cells [8]; 72 hours): 34%; G2/M, percentage of total cells with a 2N to 4N DNA content (MCF7 cells [8]; 72 hours): 66%; <G1 DNA content, percent of total cells (MCF7 cells [8]; 96 hours): 8%; G1/S, percentage of total cells with a 2N to 4N DNA content (MCF7 cells [8]; 96 hours): 29%; G2/M, percentage of total cells with a 2N to 4N DNA content (MCF7 cells [8]; 96 hours): 71%; <G1 DNA content, percent of total cells (ZR-75-1 cells [9]; 24 hours): 1%; G1/S, percentage of total cells with a 2N to 4N DNA content (ZR-75-1 cells [9]; 24 hours): 84%; G2/M, percentage of total cells with a 2N to 4N DNA content (ZR-75-1 cells [9]; 24 hours): 15%; <G1 DNA content, percent of total cells (ZR-75-1 cells [9]; 48 hours): 6%; G1/S, percentage of total cells with a 2N to 4N DNA content (ZR-75-1 cells [9]; 48 hours): 60%; G2/M, percentage of total cells with a 2N to 4N DNA content (ZR-75-1 cells [9]; 48 hours): 40%; <G1 DNA content, percent of total cells (ZR-75-1 cells [9]; 72 hours): 12%; G1/S, percentage of total cells with a 2N to 4N DNA content (ZR-75-1 cells [9]; 72 hours): 37%; G2/M, percentage of total cells with a 2N to 4N DNA content (ZR-75-1 cells [9]; 72 hours): 60% and 63%; <G1 DNA content, percent of total cells (ZR-75-1 cells [9]; 96 hours): 9%; G1/S, percentage of total cells with a 2N to 4N DNA content (ZR-75-1 cells [9]; 96 hours): 20%; G2/M, percentage of total cells with a 2N to 4N DNA content (ZR-75-1 cells [9]; 96 hours): 80%; lowest dose that gave significant growth inhibition in each cell line [10]: 500 nM; cell numbers, % of the control cell number, Stage 1 ([11]; 1 m (so in the source)): 50%; cell numbers, % of the control cell number, Stage 1 ([11]; 5 μm): 36%; effect on cell numbers, Stage 2 (irreversible growth inhibition) ([11]; re-seeded after 6-day treatment, further 6 days without drug): severely growth restricted

Question: Which results are given for `COc1cc2c(cc1O)CC[C@@H]1[C@@H]2CC[C@]2(C)[C@@H](O)CC[C@@H]12` [2-MeOE2, 2-methoxyoestradiol]?
Answer: reduction of tumour growth (Meth A sarcoma): 57%; reduction of tumour volumes compared with untreated controls [12]: 60%; toxic side effects [12]: No toxic side effects were detected; concentrations cytotoxic to MCF-7 breast cancer cells [13]: ≥ 1 μm; reduction of tumour growth (B16 melanoma): 83%

From patent US7078395B1, “Methods for treating or preventing cancer by preventing, inhibiting or arresting cell cycling” (priority 1999, dated 2006)
